Test results from patent US12655106B2 (Eikonizo Therapeutics, Inc., priority 2021, dated 2026).

Experiments:
Full length Human HDAC8 = biological target: T1, Full length Human HDAC8 (Homo sapiens, UniProt Q9BY41); test: Caliper endpoint assay for HDAC enzymatic activity (HDAC8); type: biochemical; details: in vitro enzymatic, 30 min pre-incubation, 1 μM substrate peptide
T1 construct: Full length Human HDAC8; HIS (N); host or cells: baculovirus expression system
T1 sequence (Q9BY41 1-377): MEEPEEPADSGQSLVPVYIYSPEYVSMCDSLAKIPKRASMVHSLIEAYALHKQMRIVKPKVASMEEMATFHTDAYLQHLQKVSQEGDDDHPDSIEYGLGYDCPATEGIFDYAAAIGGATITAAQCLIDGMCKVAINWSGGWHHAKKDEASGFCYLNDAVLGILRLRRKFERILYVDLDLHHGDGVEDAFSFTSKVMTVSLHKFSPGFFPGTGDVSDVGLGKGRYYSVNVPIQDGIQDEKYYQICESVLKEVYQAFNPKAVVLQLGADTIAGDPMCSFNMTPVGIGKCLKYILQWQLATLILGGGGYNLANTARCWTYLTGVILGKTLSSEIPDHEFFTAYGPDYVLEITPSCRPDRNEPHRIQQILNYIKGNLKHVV

Full length Human HDAC6 = biological target: T2, Full length Human HDAC6 (Homo sapiens, UniProt Q9UBN7); test: Caliper endpoint assay for HDAC enzymatic activity (HDAC6); type: biochemical; details: for IC50: in vitro enzymatic, Caliper endpoint assay, 30 min pre-incubation, 1 μM substrate peptide; for Selectivity (6 v 8): ratio of HDAC8 IC50/HDAC6 IC50
T2 construct: Full length Human HDAC6; FLAG (C); host or cells: baculovirus expression system
T2 sequence (Q9UBN7 1-1215): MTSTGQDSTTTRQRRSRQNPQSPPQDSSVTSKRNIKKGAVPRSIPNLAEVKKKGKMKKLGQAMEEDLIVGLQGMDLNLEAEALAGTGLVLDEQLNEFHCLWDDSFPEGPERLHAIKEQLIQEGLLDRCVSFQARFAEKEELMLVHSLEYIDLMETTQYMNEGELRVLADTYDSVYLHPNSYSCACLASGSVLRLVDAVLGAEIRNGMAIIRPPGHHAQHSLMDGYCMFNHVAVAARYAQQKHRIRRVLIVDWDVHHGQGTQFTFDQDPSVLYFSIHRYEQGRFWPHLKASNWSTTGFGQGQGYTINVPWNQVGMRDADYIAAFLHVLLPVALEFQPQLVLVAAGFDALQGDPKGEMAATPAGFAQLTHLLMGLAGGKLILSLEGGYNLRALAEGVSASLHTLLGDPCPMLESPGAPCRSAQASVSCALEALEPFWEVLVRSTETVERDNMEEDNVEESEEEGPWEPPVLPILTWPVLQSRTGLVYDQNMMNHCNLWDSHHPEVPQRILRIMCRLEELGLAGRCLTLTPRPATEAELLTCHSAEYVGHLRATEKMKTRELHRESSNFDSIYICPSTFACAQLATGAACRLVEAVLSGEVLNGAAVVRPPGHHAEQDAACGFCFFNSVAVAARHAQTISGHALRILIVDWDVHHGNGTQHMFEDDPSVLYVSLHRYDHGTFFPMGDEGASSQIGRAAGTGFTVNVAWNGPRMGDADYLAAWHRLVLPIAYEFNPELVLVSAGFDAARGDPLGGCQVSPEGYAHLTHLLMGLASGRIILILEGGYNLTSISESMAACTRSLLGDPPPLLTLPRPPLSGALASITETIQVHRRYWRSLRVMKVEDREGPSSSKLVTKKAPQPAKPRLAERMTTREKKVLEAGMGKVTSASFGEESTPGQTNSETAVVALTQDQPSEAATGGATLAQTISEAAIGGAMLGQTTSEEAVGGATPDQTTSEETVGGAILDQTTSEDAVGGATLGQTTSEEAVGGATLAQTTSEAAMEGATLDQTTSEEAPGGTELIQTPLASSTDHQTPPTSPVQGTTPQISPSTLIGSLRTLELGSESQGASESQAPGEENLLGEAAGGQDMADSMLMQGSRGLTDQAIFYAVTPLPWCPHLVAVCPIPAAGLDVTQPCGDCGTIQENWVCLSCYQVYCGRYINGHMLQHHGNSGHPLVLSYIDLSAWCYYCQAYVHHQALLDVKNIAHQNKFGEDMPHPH

SMILES | IC50 (Full length Human HDAC8) [µM] | IC50 (Full length Human HDAC6) [µM] | Selectivity (6 v 8) (Full length Human HDAC6)
O=C(NO)c1cc(F)c2c(c1)CCN([C@H]1C[C@]3(CCCNC3)C1)C2 (single isomer, unassigned) [Compound 341, 8-fluoro-N-hydroxy-2-((2r,4s)-6-azaspiro[3.5]nonan-2-yl)-1,2,3,4-tetrahydroisoquinoline-6-carboxamide] | 10 to 100 | 0.001 to 0.1 | IV (IV: >100-1000)
O=C(NO)c1cc(F)c2c(c1)CCN([C@H]1C[C@@]3(CCCNC3)C1)C2 (single isomer, unassigned) [Compound 342, 8-fluoro-N-hydroxy-2-((2s,4r)-6-azaspiro[3.5]nonan-2-yl)-1,2,3,4-tetrahydroisoquinoline-6-carboxamide] | 1 to 10 | 0.001 to 0.1 | IV (IV: >100-1000)
CN1CCC[C@]2(C1)C[C@@H](N1CCc3cc(C(=O)NO)cc(F)c3C1)C2 (single isomer, unassigned) [Compound 343, 8-fluoro-N-hydroxy-2-((2r,4s)-6-methyl-6-azaspiro[3.5]nonan-2-yl)-1,2,3,4-tetrahydroisoquinoline-6-carboxamide] | 10 to 100 | 0.001 to 0.1 | IV (IV: >100-1000)
CN1CCC[C@]2(C1)C[C@H](N1CCc3cc(C(=O)NO)cc(F)c3C1)C2 (single isomer, unassigned) [Compound 344, 8-fluoro-N-hydroxy-2-((2s,4r)-6-methyl-6-azaspiro[3.5]nonan-2-yl)-1,2,3,4-tetrahydroisoquinoline-6-carboxamide] | 10 to 100 | 0.001 to 0.1 | IV (IV: >100-1000)
O=C(NO)c1cc(F)c2c(c1)CCN([C@H]1C[C@]3(CCCN(C4CC4)C3)C1)C2 (single isomer, unassigned) [Compound 345, 2-((2r,4s)-6-cyclopropyl-6-azaspiro[3.5]nonan-2-yl)-8-fluoro-N-hydroxy-1,2,3,4-tetrahydroisoquinoline-6-carboxamide] | 1 to 10 | 0.001 to 0.1 | IV (IV: >100-1000)
O=C(NO)c1cc(F)c2c(c1)CCN([C@H]1C[C@@]3(CCCN(C4CC4)C3)C1)C2 (single isomer, unassigned) [Compound 346, 2-((2s,4r)-6-cyclopropyl-6-azaspiro[3.5]nonan-2-yl)-8-fluoro-N-hydroxy-1,2,3,4-tetrahydroisoquinoline-6-carboxamide] | 1 to 10 | 0.001 to 0.1 | IV (IV: >100-1000)
CC(=O)N1CCC[C@]2(C1)C[C@H](N1CCc3cc(C(=O)NO)cc(F)c3C1)C2 (single isomer, unassigned) [Compound 348, 2-(6-acetyl-6-azaspiro[3.5]nonan-2-yl)-8-fluoro-3,4-dihydro-1H-isoquinoline-6-carbohydroxamic acid] | 10 to 100 | 0.001 to 0.1 | IV (IV: >100-1000)
CC(=O)N1CCC[C@]2(C1)C[C@@H](N1CCc3cc(C(=O)NO)cc(F)c3C1)C2 (single isomer, unassigned) [Compound 349, 2-(6-acetyl-6-azaspiro[3.5]nonan-2-yl)-8-fluoro-3,4-dihydro-1H-isoquinoline-6-carbohydroxamic acid] | 10 to 100 | 0.001 to 0.1 | IV (IV: >100-1000)
CN1CCC[C@@]2(CC[C@H]2N2CCc3cc(C(=O)NO)cc(F)c3C2)C1 (single isomer, unassigned) [Compound 362] | 10 to 100 | 0.1 to 1 | III (III: >10-100)
CN1CCC[C@]2(CC[C@H]2N2CCc3cc(C(=O)NO)cc(F)c3C2)C1 (single isomer, unassigned) [Compound 363] | 10 to 100 | 0.001 to 0.1 | IV (IV: >100-1000)
CN1CCC[C@@]2(CC[C@@H]2N2CCc3cc(C(=O)NO)cc(F)c3C2)C1 (single isomer, unassigned) [Compound 364] | 10 to 100 | 0.001 to 0.1 | IV (IV: >100-1000)
CN1CCC[C@]2(CC[C@@H]2N2CCc3cc(C(=O)NO)cc(F)c3C2)C1 (single isomer, unassigned) [Compound 365] | 10 to 100 | 0.001 to 0.1 | IV (IV: >100-1000)
O=C(NO)c1cc(F)c2c(c1)CCN([C@H]1CCC3(CCC3)C1)C2 (single isomer, unassigned) [Compound 383] | 10 to 100 | 0.001 to 0.1 | V (V: >1000)

Other lines, results leading:

IC50 (Full length Human HDAC8) [µM] | IC50 (Full length Human HDAC6) [µM] | Selectivity (6 v 8) (Full length Human HDAC6) | SMILES
10 to 100 | 0.001 to 0.1 | V (V: >1000) | O=C(NO)c1cc(F)c2c(c1)CCN([C@@H]1CCC3(CCC3)C1)C2 (single isomer, unassigned) [Compound 384]
1 to 10 | 0.001 to 0.1 | IV (IV: >100-1000) | CN1CC[C@]2(CC[C@@H](N3CCc4cc(C(=O)NO)cc(F)c4C3)C2)C1 (single isomer, unassigned) [Compound 402]
10 to 100 | 0.001 to 0.1 | V (V: >1000) | CN1CC[C@]2(CC[C@H](N3CCc4cc(C(=O)NO)cc(F)c4C3)C2)C1 (single isomer, unassigned) [Compound 403]
10 to 100 | 0.001 to 0.1 | IV (IV: >100-1000) | CN1CC[C@@]2(CC[C@@H](N3CCc4cc(C(=O)NO)cc(F)c4C3)C2)C1 (single isomer, unassigned) [Compound 404]
> 100 | 0.001 to 0.1 | V (V: >1000) | CN1CC[C@@]2(CC[C@H](N3CCc4cc(C(=O)NO)cc(F)c4C3)C2)C1 (single isomer, unassigned) [Compound 405]
1 to 10 | 0.001 to 0.1 | IV (IV: >100-1000) | O=C(NO)c1cc(F)c2c(c1)CCN([C@H]1CCNC3(CCC3)C1)C2 (single isomer, unassigned) [Compound 435]
1 to 10 | 0.001 to 0.1 | IV (IV: >100-1000) | O=C(NO)c1cc(F)c2c(c1)CCN([C@@H]1CCNC3(CCC3)C1)C2 (single isomer, unassigned) [Compound 436]
10 to 100 | 0.001 to 0.1 | IV (IV: >100-1000) | CN1CC[C@H](N2CCc3cc(C(=O)NO)cc(F)c3C2)CC12CCC2 (single isomer, unassigned) [Compound 437]
1 to 10 | 0.001 to 0.1 | IV (IV: >100-1000) | CN1CC[C@@H](N2CCc3cc(C(=O)NO)cc(F)c3C2)CC12CCC2 (single isomer, unassigned) [Compound 438]
10 to 100 | 0.001 to 0.1 | IV (IV: >100-1000) | O=C(NO)c1cc(F)c2c(c1)CCN([C@H]1CCN(C3CC3)C3(CCC3)C1)C2 (single isomer, unassigned) [Compound 439]
1 to 10 | 0.001 to 0.1 | IV (IV: >100-1000) | O=C(NO)c1cc(F)c2c(c1)CCN([C@@H]1CCN(C3CC3)C3(CCC3)C1)C2 (single isomer, unassigned) [Compound 440]
1 to 10 | 0.001 to 0.1 | IV (IV: >100-1000) | CC(=O)N1CC[C@H](N2CCc3cc(C(=O)NO)cc(F)c3C2)CC12CCC2 (single isomer, unassigned) [Compound 441]
